Data as given in patent US7108845B2, “Methods of synthesis and use of radiolabelled platinum chemotherapeutic agents” (Australian Nuclear Science & Technology Organisation, priority 2000, dated 2006).

Key:
oesophageal cancer [1] = experiment: Pilot clinical study: imaging of uptake of ^195mPt-Cisplatin in lesions; type: in vivo, patients
Description: As part of a pilot study to evaluate the use of ^195mPt-Cisplatin and ^195mPt Carboplatin for prognosis of cancer, two patients were injected with ^195mPt-Cisplatin prepared as described in Example 2.
(§1) Patient No. 1 had oesophageal cancer, with one large lesion in the mediastinal region and large metastases in the liver. F-18-DG imaging confirmed the presence of both lesions. The patient was injected with ^195mPt-Cisplatin (100 MBq; specific activity 4.2 MBq/mg cisplatin) and imaged over a 5 day period. […] The patient was placed on a normal cisplatin chemotherapy in combination with radiation.
Patient No. 2 had oesophageal cancer. CT confirmed a large lesion in the mediastinal region. The patient was injected with ^195mPt-Cisplatin (50 MBq: specific activity 3.6 MBq/mg cisplatin) and Imaged over a 3 day period. […] The patient has undergone cisplatin chemotherapy and is being monitored for response to treatment.

oesophageal cancer [2] = experiment: Response to normal cisplatin chemotherapy in combination with radiation; type: in vivo, patients; settings: Patient No. 1, after 2 months
Description: as §1

N.N.[Cl][195Pt][Cl] [^195mPt-Cisplatin, [^195mPt]Cisplatin]
uptake of the radiolabelled cisplatin in lesions (oesophageal cancer [1]; Patient No. 1, lesion in mediastinal region and liver metastases, injected 100 MBq (4.2 MBq/mg cisplatin), imaged over a 5 day period): negligible uptake | uptake of the ^195mPt-Cisplatin in the mediastinal region (oesophageal cancer [1]; Patient No. 2, large lesion in mediastinal region, injected 50 MBq (3.6 MBq/mg cisplatin), imaged over a 3 day period): significant uptake

N.N.[Cl][Pt][Cl] [cisplatin, cis-dichlorodiammine-platinum(II)]
response to treatment (oesophageal cancer [2]): no evidence of response to treatment
